Laboratory results from the supplement of paper PMC10307832.

Assays:
Experiment in all cases: relative viability (nuclei count vs DMSO), 5 days (fraction); higher = more cells survive
CUDC-101 + Palbociclib = compound: C#Cc1cccc(Nc2ncnc3cc(OC)c(OCCCCCCC(=O)NO)cc23)c1 [CUDC-101] + CC(=O)c1c(C)c2cnc(Nc3ccc(N4CCNCC4)cn3)nc2n(C2CCCC2)c1=O [Palbociclib] (partner 0.5 µM)
Method in brief: (§1)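 A single step with final 0.05% Triton X-100, 1% formaldehyde and 1 ug/ml Hoechst fixed the cells and stained nuclei 5 days after treatment. Lung cancer cell lines in 1536-well plates had been treated by pin tool the day after seeding with one drug alone or a fixed anchor-drug dose plus five library-drug doses (not always all listed) in √10 steps, and nuclei were counted on 4× images. Relative viability is the ratio of nuclei in treated wells to nuclei in vehicle wells, taken as the median of duplicate plates.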

Vandetanib + AZD7762 = compound: COc1cc2/c(=N/c3ccc(Br)cc3F)nc[nH]c2cc1OCC1CCN(C)CC1 [Vandetanib] + NC(=O)Nc1cc(-c2cccc(F)c2)sc1C(=O)N[C@H]1CCCNC1 [AZD7762] (partner 0.2 µM)
Method in brief: as §1

[1] = compound: C1=CC=C2C(=C1)N=C(S2)C(C#N)C3=NC(=NC=C3)NCCC4=CN=CC=C4 + CC1(C)CCC(c2ccc(Cl)cc2)=C(CN2CCN(c3ccc(C(=O)NS(=O)(=O)c4ccc(N[C@H](CCN5CCOCC5)CSc5ccccc5)c(S(=O)(=O)C(F)(F)F)c4)cc3)CC2)C1 [Navitoclax] (partner 0.5 µM)
Method in brief: as §1

NVP-TAE684 + Trametinib = compound: COc1cc(N2CCC(N3CCN(C)CC3)CC2)ccc1Nc1ncc(Cl)c(Nc2ccccc2S(=O)(=O)C(C)C)n1 [NVP-TAE684] + CC(=O)Nc1cccc(-n2c(=O)n(C3CC3)c(=O)c3c(Nc4ccc(I)cc4F)n(C)c(=O)c(C)c32)c1 [Trametinib] (partner 0.02 µM)
Method in brief: as §1

Row | Cell Line | relative viability (CUDC-101 + Palbociclib; first compound 0.01 µM) | relative viability (CUDC-101 + Palbociclib; first compound 0.03162 µM) | relative viability (CUDC-101 + Palbociclib; first compound 0.1 µM) | relative viability (CUDC-101 + Palbociclib; first compound 0.3162 µM) | relative viability (CUDC-101 + Palbociclib; first compound 1 µM) | relative viability (Vandetanib + AZD7762; first compound 0.02 µM) | relative viability (Vandetanib + AZD7762; first compound 0.06325 µM) | relative viability (Vandetanib + AZD7762; first compound 0.2 µM) | relative viability (Vandetanib + AZD7762; first compound 0.6325 µM) | relative viability (Vandetanib + AZD7762; first compound 2 µM) | relative viability ([1]; first compound 0.005 µM) | relative viability ([1]; first compound 0.01581 µM) | relative viability ([1]; first compound 0.05 µM) | relative viability ([1]; first compound 0.1581 µM) | relative viability ([1]; first compound 0.5 µM) | relative viability (NVP-TAE684 + Trametinib; first compound 0.2 µM) | relative viability (NVP-TAE684 + Trametinib; first compound 0.6325 µM) | relative viability (NVP-TAE684 + Trametinib; first compound 2 µM)
1 | HCC-44 | 1.02 | 0.943 | 0.951 | 0.986 | 1.05 | 0.982 | 1.04 | 1.11 | 1.03 | 1.04 | 0.759 | 1.13 | 0.906 | 1.02 | 0.872 | 0.982 | 1.08 | 0.926
2 | EKVX | 0.374 | 0.335 | 0.336 | 0.405 | 0.323 | 0.693 | 0.692 | 0.611 | 0.694 | 0.547 | 0.947 | 0.986 | 1.09 | 0.949 | 1.11 | 0.285 | 0.241 | 0.334
3 | NCI-H23 | 0.463 | 0.562 | 0.563 | 0.535 | 0.446 | 0.193 | 0.251 | 0.199 | 0.234 | 0.31 |  | 0.958 | 0.728 | 0.959 | 0.958 | 0.493 | 0.333 | 0.208
4 | NCI-H2347 | 0.469 | 0.431 | 0.429 | 0.435 | 0.418 | 0.764 | 0.657 | 0.788 | 0.778 | 0.689 | 0.727 | 0.891 | 0.834 | 0.827 | 0.735 | 0.275 | 0.264 | 0.355
5 | SK-LU-1 | 0.371 | 0.354 | 0.407 | 0.455 | 0.311 |  |  |  |  |  |  | 0.828 | 0.694 | 1.02 | 1.02 | 0.42 | 0.445 | 0.383
6 | A549 |  |  |  |  |  |  |  |  |  |  | 1.26 | 1.19 | 1.11 | 1.31 | 1.29 |  |  | 
7 | LU99A | 0.332 | 0.391 | 0.374 | 0.425 | 0.212 | 0.303 | 0.516 | 0.344 | 0.238 | 0.334 | 0.691 | 0.968 | 0.777 | 0.948 | 0.866 | 0.579 | 0.616 | 0.349
8 | NCI-H596 |  |  |  |  |  | 1.15 | 1.05 | 1.12 | 1.02 | 1.17 | 0.913 | 1.08 | 0.893 | 1.18 | 0.953 | 0.712 | 0.581 | 0.688
9 | A-427 | 0.562 | 0.538 | 0.501 | 0.496 | 0.487 | 0.684 | 0.674 | 0.719 | 0.62 | 0.61 | 0.964 | 0.95 | 0.956 | 0.896 | 1.05 | 0.699 | 0.627 | 0.462
10 | SW 900 | 0.508 | 0.449 | 0.514 | 0.5 | 0.362 | 0.6 | 0.607 |  | 0.598 | 0.688 |  |  |  |  |  | 0.743 | 0.51 | 0.594
11 | COR-L 105 | 0.383 | 0.404 | 0.408 | 0.427 | 0.294 |  |  |  |  |  | 0.819 | 0.753 | 0.599 | 0.667 | 0.729 | 0.439 | 0.42 | 0.313
12 | LOU-NH91 | 0.574 | 0.445 | 0.529 | 0.581 | 0.515 | 0.759 | 0.765 | 0.678 | 0.718 | 0.755 | 0.682 | 0.724 | 0.578 | 0.633 | 0.641 | 0.783 | 0.714 | 0.626
13 | COR-L23 | 0.275 | 0.332 | 0.283 | 0.253 | 0.128 |  |  |  |  |  | 0.929 | 0.94 | 1.1 | 1.04 | 1.15 | 0.547 | 0.484 | 0.222
14 | HCC-15 | 0.737 | 0.74 | 0.793 | 0.818 | 0.648 | 1.29 | 1.04 | 1.18 | 1.33 | 1.15 | 0.736 | 0.787 | 0.664 | 0.749 | 0.602 | 0.355 | 0.418 | 0.186
15 | LCLC-103H | 0.47 | 0.51 | 0.491 | 0.45 | 0.436 | 0.755 | 0.783 | 0.758 | 0.772 | 0.82 |  |  |  |  |  | 0.692 | 0.693 | 0.603
16 | HARA | 0.278 | 0.204 | 0.246 | 0.224 | 0.172 | 0.262 | 0.448 | 0.396 | 0.18 | 0.312 | 1.09 | 1.16 | 1.14 | 1.22 | 1.21 | 0.575 | 0.69 | 0.155
17 | BEN | 0.432 | 0.477 | 0.522 | 0.513 | 0.479 | 0.69 | 0.622 | 0.585 | 0.633 | 0.661 | 0.0669 | 0.0686 | 0.0618 | 0.134 | 0.0603 | 0.983 | 0.912 | 
